Source: patent publication US20140322149A1, “COMPOUND USEFUL FOR TREATING CELLULITE” (SIGMA-TAU INDUSTRIE FARMACEUTICHE RIUNITE S.P.A., priority 2008, published 2014)

System: cellulite in the thigh
Assay: Anticellulite activity, intradermal multiple injection in the thigh of female subjects
Assay type: in vivo, human
Conditions: for Irritation reactions: during treatment; for Irritation reactions / Reduction of the fatty layer thickness / Reduction of the thigh diameter / Skin firmness / Skin hydration / Surface smoothness / Subjective improvement: 50.0 mg in 2.5 mL intradermally by multiple injection; for Irritation reactions / Reduction of the fatty layer thickness / Reduction of the thigh diameter / Skin firmness / Skin hydration / Surface smoothness / Subjective improvement / Clinical grading: once per week; for Reduction of the fatty layer thickness / Reduction of the thigh diameter / Skin firmness / Skin hydration / Surface smoothness: end of treatment (week 6) vs base line; for Subjective improvement / Clinical grading: end of treatment (week 6); for Clinical grading: visual grading of degree of cellulite, scale 0-4, 50.0 mg in 2.5 mL intradermally; for Anticellulite activity (overall, in words): comparison among propionyl L-carnitine, acetyl L-carnitine and L-carnitine
Description: The effectiveness of intradermally administration of the product according to the invention was tested for its ability to reduce the appearance of cellulite in the thigh. A total of 54 female subjects ranging in age from 23 to 58 years of age were selected to evaluate the composition of the invention.
The subjects were selected based on their cellulite intensity in the thigh area having a bi-lateral symmetry. Subjects with grades 1 and 2 cellulite were chosen, as a 5-point grading scale was used to rate the cellulite severity of each subject. The scale ranged from 0 to 4, being 0=No cellulite; 1=Small bumps or depressions; 2=Striations and bumps; 3=Pronounced lumpiness of the skin and striations; 4=All of the above plus hard sub-surface nodules.
All subjects had the absence of any visible skin disease(s) which might be confused with a skin reaction from the test material and were in general good health with no known allergies, especially to cosmetic or toiletry products; had no evidence of acute or chronic disease; were not pregnant or lactating; were not on any diet or weight reduction program; and were not on any regular exercise program (immediately prior to or during the course of the study).
At baseline each subject received a visual examination conducted by a qualified technician and scored for the degree of cellulite. In the same day subjects were treated on the right and left thigh intradermally by multiple injection, (from 5 to 10 injections per thigh using a “Lebel needle” 4 mm×0.4 mm; 27 G). The treatment was repeated once per week for […] (week 0; 1; 2; 3; 4; and 5).
The degree of cellulite was evaluated according to the following scale: 0=No visible cellulite; 1=Very little visible cellulite, no dimpling; 2=Visible cellulite, evidence of shallow dimpling; 3=Easily visible cellulite, moderate to pronounced dimpling; 4=Extremely visible cellulite, heavy and deep dimpling.
The patients were divided in 3 groups and treated intradermally by multiple injection with a composition comprising:
Group A • Propionyl L-Carnitine: 50.0 mg; • Mannitol: 100.0 mg; • Sodium phosphate bibasic bi-hydrate: 24.0 mg; • Trometamine: 8.0 mg; • H2O: 2.5 mL (final volume);
Group B • Acetyl L-Carnitine: 50.0 mg; • Mannitol: 100.0 mg; • Sodium phosphate bibasic bi-hydrate: 24.0 mg; • Trometamine: 8.0 mg; • H2O: 2.5 mL (final volume); or
Group C • L-Carnitine: 50.0 mg; • Mannitol: 100.0 mg; • Sodium phosphate bibasic bi-hydrate: 24.0 mg; • Trometamine: 8.0 mg; • H2O: 2.5 mL (final volume).
Subjects were instructed to discontinue the use of their normal anti-cellulite products to avoid introducing any new products for treating cellulite during the study, and to not be on any diet or weight reduction program or on any regular exercise program immediately prior to or during the course of the study. Each subject was also instructed to keep a diary to document compliance.
After 7 days from the last treatment (week 6) the subjects returned to the hospital for a final visual evaluation.
The cellulite evaluation was made according the method described in Cosmetics & Toiletries, 61-70, June 1995, by comparison of the values before and after the treatment.

Structure (SMILES) | Irritation reactions | Reduction of the fatty layer thickness [%] | Reduction of the thigh diameter [%] | Skin firmness | Skin hydration | Surface smoothness | Subjective improvement | Clinical grading | Anticellulite activity (overall, in words) (summary of Table 1) | Effect on skin infrastructure (dermis of the skin) (summary of Table 1) | Anticellulite activity (overall, in words) (summary of Table 1, listed as compound of the invention)
CC(=O)O[C@H](CC(=O)[O-])C[N+](C)(C)C [Acetyl L-carnitine, Acetyl L-Carnitine] | 0 | −10 | −2 | +6% | +8% | +15% | +15% | +8% | inferior compared with that of propionyl L-carnitine |  | 
C[N+](C)(C)C[C@H](O)CC(=O)[O-] [L-carnitine, L-Carnitine] |  | −12 | −3 | +9% | +10% | +18% | +19% | +12% | inferior compared with that of propionyl L-carnitine |  | 
CCC(=O)O[C@H](CC(=O)[O-])C[N+](C)(C)C [Propionyl L-carnitine, Propionyl L-Carnitine] | 0 | −28 | −11 | +20% | +27% | +42% | +57% | +34% | effectively ameliorate the cellulite condition | improved skin infrastructure | significantly higher respect to the activity of L-carnitine or acetyl L-carnitine
